Reference: article PMC6421297, “Novel Mouse Tauopathy Model for Repetitive Mild Traumatic Brain Injury: Evaluation of Long-Term Effects on Cognition and Biomarker Levels After Therapeutic Inhibition of Tau Phosphorylation” (Frontiers in Neurology, 2019)

What was measured:
[1] = system: tau phosphorylation at Thr231 and Ser202 in SH-SY5Y-(P301L) cells; type: cell-based; settings: 6 h
Protocol: (§1) SH-SY5Y-P301L cells (gift from Prof. Fred Van Leuven, Department of Human Genetics, KU Leuven, Belgium) were cultured Dulbecco's Modified Eagle Medium (DMEM):Nutrient Mixture F-12 (DMEM/F-12, Gibco, c/o Invitrogen, Saint Aubin, France) containing 1% Penicillin-Streptomycin mixture (Gibco) and 10% fetal bovine serum (FBS, Gibco) in a humidified, 5% CO2 incubator at 37°C. Cells were split routinely once a week. Cells were seeded at a density of 1.5 x 10^6 cells/well in P60 well plates with 4 ml medium/well and exposed for 6 h to a range of ros concentrations (Figures 2–4) or to a few concentrations of various kinase inhibitors with different selectivities (Figure 3). At the end of the incubation cells were harvested for Western blotting. Cells were scraped in cold phosphate-buffered saline, centrifuged at 10,000 x g for 5 min at 4°C, and pellets were snap-frozen in liquid nitrogen. Experiments were repeated three or four times.
(§2) For Western blot analysis, cell pellets were lysed in homogenization buffer (25 mM MOPS, 15 mM EGTA, 15 mM MgCl2, 60 mM β-glycerophosphate, 15 mM p-nitrophenylphosphate, 2 mM dithiothreitol (DTT), 1 mM Na3VO4, 1 mM NaF, 1 mM disodium phenylphosphate, 1x protease inhibitor cocktail, 0.2% Nonidet P-40 substitute). Protein extracts were mixed (1:1 v/v) with sample buffer (2 × NuPAGE LDS sample buffer, 200 mM DTT) and 20 μg of total protein was loaded on NuPAGE 4–12% Bis-Tris protein gels. Electrophoresis was carried out at 70 V in MOPS buffer for 4 h. Rapid blot transfers were performed at 2.5A/25V for 7 min. […] P-tau and T-tau signals were first normalized to GAPDH from the same membranes, and then divided one by another to obtain the level of pS202 or pT231 relative to T-tau. Values are presented as mean±SEM of three or four independent experiments.

[2] = system: epileptic rats; parameters: method as in PMID 28595035; settings: cited from earlier work
[3] = system: S202-Tau phosphorylation in SH-SY5Y-(P301L) cells; assay: Western blot of pS202-tau/T-tau in SH-SY5Y-(P301L) cells, roscovitine and/or LiCl, with coefficient of drug interaction; type: cell-based; settings: 6 h; for tau phosphorylation (pS202-tau), individual treatment: single agent
Protocol: as §1, §2
For cell cultures and immunoblotting data the two-tailed unpaired t-test (Graphpad Prism) was used. Coefficients of drug interaction (CDI) were calculated as follows: CDI = AB/(A × B). According to the ratio pS202 tau/T-tau of each group, AB is the ratio of the combination groups to control group; A or B is the ratio of the single agent group to control group. […]

[4] = system: mice following TBI; settings: cited from earlier work

| SMILES | Inhibition of tau phosphorylation at Thr231 and Ser202 ([1]; 25, 50, and 100 μM) | reduction of tau phosphorylation by inhibitors to secondary kinase targets ([1]; 25, 50, and 100 μM) | other results |
| --- | --- | --- | --- |
| CCC(CO)Nc1nc(N(C)Cc2ccccc2)c2ncn(C(C)C)c2n1 (centres unmarked) [N6-methyl-roscovitine] | not |  |  |
| CC(C)(C)c1cnc(CSc2cnc(NC(=O)C3CCNCC3)s2)o1 [SNS-032, N-[5-[[[5-(1,1-dimethylethyl)-2-oxazolyl]methyl]thio]-2-thiazolyl]-4-piperidinecarboxamide] | evident |  |  |
| CCc1cnn2c(NCc3ccc[n+]([O-])c3)cc(N3CCCC[C@H]3CCO)nc12 [SCH727965] | evident |  |  |
| O=C1NC(Nc2ccccc2)=N/C1=C\c1ccc2c(c1)OCO2 [Leucettine 41] |  | none of the inhibitors to secondary kinase targets reduced tau phosphorylation |  |
| [Cl-].[Li+] [LiCl, lithium chloride] |  |  | epilepsy-induced axonal impairment [2]: reversed axonal impairment; dose-response of pS202-tau inhibition, LiCl alone ([3]; LiCl alone): no dose-response relationship; tau phosphorylation (pS202-tau), individual treatment [3]: slightly down-regulated |
| COc1cc(OC)c(C=C2C(O)=Nc3ccccc32)c(OC)c1 [IC261] |  |  | activity at site pSer202 ([1]; 25, 50, and 100 μM): active |
| COc1cccc(-c2cc(=O)c3ccccc3o2)c1N [PD098059] |  | none of the inhibitors to secondary kinase targets reduced tau phosphorylation |  |
| CC[C@H](CO)Nc1nc(NCc2ccc(-c3ccccn3)cc2)c2ncn(C(C)C)c2n1 [CR8] | evident |  |  |
| NC(=O)c1ccc(-c2nc(-c3ccc4c(c3)OCCO4)c(-c3ccccn3)[nH]2)cc1 [D4476] |  | none of the inhibitors to secondary kinase targets reduced tau phosphorylation |  |
| CCN1/C(=C/C(C)=O)Sc2ccc(OC)cc21 [TG003] |  | none of the inhibitors to secondary kinase targets reduced tau phosphorylation |  |
| CC[C@@H](CO)Nc1nc(N(C)Cc2ccc(-c3ccccn3)cc2)c2ncn(C(C)C)c2n1 [N6-methyl-CR8] | not |  | cause of decreases in P-tau at the high dose ([1]; 100 μM): likely the result of drug-associated cell toxicity |
| N#CC(=C(/N)Sc1ccccc1N)/C(C#N)=C(/N)Sc1ccccc1N [UO126] |  | none of the inhibitors to secondary kinase targets reduced tau phosphorylation |  |
| CC[C@H](CO)Nc1nc(NCc2ccccc2)c2ncn(C(C)C)c2n1 [Roscovitine, (R)-roscovitine] | evident |  | cognitive deficits, spatial learning and memory after TBI [4]: attenuated cognitive deficits and improved spatial learning and memory; epilepsy-induced axonal impairment [2]: reversed axonal impairment; inhibition of Ser202 phosphorylation, ros alone ([3]; ros alone): moderate and dose-dependent inhibition; tau phosphorylation (pS202-tau), individual treatment [3]: slightly down-regulated; inhibition of Thr231 and Ser202 phosphorylation ([1]; range of ros concentrations): dose-dependent inhibition |
| COc1ccc2c(c1)[nH]c1c(C)nccc12 [harmine] |  | none of the inhibitors to secondary kinase targets reduced tau phosphorylation |  |
| O=C(NC1CCNCC1)c1[nH]ncc1NC(=O)c1c(Cl)cccc1Cl [AT7519] | evident |  |  |
